Experiments:
Assay in all cases: Kinase profiling in a biochemical assay panel (mobility shift assays and ELISA), %-inhibition at 1 μM; selectivity entropy
[1] = biological target: panel of more than 300 wild-type and mutant kinases (313 kinase panel) (Homo sapiens, UniProt P16234, V561D)
[2] = biological target: T1, panel of more than 300 wild-type and mutant kinases (313 kinase panel) (Homo sapiens, UniProt P42680)
T1 sequence (P42680 1-631): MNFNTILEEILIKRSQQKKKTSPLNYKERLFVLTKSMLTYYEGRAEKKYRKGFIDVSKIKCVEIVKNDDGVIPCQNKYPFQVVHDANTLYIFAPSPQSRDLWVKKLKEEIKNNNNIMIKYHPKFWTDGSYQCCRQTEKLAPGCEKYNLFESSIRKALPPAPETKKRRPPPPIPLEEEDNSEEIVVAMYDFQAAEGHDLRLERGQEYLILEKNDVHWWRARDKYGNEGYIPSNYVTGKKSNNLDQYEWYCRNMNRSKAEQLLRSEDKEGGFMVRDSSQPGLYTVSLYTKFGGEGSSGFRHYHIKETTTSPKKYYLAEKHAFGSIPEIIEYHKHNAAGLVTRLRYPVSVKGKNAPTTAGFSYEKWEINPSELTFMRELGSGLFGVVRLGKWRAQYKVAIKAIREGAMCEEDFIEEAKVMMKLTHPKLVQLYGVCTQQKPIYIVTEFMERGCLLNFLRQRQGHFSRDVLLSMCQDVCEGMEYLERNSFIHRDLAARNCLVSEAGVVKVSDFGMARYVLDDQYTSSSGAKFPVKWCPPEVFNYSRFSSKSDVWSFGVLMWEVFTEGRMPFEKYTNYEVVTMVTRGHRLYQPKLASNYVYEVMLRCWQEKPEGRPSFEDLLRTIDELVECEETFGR

[3] = biological target: panel of more than 300 wild-type and mutant kinases (313 kinase panel) (Homo sapiens, UniProt P57059)
[4] = biological target: panel of more than 300 wild-type and mutant kinases (313 kinase panel) (Homo sapiens, UniProt Q06187)
[5] = biological target: panel of more than 300 wild-type and mutant kinases (313 kinase panel) (Homo sapiens, UniProt Q9BYP7)
Sequence of panel of more than 300 wild-type and mutant kinases (313 kinase panel) (Homo sapiens, UniProt Q9BYP7) (Q9BYP7 whole entry, change not shown): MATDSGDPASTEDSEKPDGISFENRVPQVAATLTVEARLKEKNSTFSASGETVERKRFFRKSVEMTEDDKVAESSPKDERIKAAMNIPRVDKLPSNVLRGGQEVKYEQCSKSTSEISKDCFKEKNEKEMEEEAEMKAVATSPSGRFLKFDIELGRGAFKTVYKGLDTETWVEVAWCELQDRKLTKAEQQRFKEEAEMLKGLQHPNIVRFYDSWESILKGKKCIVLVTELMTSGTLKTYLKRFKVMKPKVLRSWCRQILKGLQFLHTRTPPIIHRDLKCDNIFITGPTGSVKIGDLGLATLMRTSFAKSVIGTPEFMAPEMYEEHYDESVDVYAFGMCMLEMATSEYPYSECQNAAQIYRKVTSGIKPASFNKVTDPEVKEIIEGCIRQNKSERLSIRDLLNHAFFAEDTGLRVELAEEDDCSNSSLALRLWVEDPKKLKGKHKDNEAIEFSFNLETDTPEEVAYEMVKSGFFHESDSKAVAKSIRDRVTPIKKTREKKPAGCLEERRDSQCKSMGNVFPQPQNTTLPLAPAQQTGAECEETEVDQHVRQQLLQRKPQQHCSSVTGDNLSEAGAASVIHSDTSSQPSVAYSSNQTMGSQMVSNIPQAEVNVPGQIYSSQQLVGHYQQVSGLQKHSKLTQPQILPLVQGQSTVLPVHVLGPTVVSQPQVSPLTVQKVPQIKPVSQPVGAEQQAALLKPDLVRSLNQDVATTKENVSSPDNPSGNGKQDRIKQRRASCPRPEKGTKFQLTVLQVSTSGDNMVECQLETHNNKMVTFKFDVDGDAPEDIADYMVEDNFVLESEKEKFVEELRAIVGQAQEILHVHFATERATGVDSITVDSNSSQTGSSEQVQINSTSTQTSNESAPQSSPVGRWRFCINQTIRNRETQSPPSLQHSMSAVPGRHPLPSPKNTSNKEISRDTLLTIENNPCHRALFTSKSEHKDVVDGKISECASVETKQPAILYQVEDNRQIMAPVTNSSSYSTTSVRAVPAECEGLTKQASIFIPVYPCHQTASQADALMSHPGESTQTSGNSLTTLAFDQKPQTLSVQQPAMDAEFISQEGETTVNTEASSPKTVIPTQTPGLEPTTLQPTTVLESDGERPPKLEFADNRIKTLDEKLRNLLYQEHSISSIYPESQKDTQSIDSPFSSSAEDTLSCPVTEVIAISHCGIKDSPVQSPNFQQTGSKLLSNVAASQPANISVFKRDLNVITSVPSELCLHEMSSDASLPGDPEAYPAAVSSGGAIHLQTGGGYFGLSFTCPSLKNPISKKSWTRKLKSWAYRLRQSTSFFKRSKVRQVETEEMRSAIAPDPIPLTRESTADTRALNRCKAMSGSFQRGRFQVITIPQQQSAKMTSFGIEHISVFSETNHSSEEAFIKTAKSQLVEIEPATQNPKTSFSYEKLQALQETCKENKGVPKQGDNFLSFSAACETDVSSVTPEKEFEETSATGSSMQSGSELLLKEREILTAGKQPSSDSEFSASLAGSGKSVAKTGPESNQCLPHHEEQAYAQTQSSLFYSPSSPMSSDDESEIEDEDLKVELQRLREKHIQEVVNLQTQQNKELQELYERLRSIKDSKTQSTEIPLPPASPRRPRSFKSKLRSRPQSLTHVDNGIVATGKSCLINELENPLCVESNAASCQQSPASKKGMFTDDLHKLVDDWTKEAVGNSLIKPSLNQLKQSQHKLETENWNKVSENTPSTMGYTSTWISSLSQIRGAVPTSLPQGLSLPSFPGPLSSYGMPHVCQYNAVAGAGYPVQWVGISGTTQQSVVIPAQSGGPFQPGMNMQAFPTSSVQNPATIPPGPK

[6] = biological target: panel of more than 300 wild-type and mutant kinases (313 kinase panel) (Homo sapiens, UniProt P42684)
[7] = biological target: T2, panel of more than 300 wild-type and mutant kinases (313 kinase panel) (Homo sapiens, UniProt P52564)
T2 sequence (P52564 1-334): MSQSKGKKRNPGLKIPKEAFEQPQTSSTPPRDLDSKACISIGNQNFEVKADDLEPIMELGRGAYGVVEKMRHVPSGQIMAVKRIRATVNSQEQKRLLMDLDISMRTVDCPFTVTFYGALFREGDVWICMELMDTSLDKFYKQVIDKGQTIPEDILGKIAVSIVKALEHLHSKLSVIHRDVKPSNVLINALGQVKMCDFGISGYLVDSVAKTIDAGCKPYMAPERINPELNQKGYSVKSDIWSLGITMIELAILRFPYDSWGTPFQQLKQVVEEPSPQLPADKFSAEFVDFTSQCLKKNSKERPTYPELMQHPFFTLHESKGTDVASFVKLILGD

[8] = biological target: panel of more than 300 wild-type and mutant kinases (313 kinase panel) (Homo sapiens, UniProt Q96GD4)
Sequence of panel of more than 300 wild-type and mutant kinases (313 kinase panel) (Homo sapiens, UniProt Q96GD4) (Q96GD4 whole entry, change not shown): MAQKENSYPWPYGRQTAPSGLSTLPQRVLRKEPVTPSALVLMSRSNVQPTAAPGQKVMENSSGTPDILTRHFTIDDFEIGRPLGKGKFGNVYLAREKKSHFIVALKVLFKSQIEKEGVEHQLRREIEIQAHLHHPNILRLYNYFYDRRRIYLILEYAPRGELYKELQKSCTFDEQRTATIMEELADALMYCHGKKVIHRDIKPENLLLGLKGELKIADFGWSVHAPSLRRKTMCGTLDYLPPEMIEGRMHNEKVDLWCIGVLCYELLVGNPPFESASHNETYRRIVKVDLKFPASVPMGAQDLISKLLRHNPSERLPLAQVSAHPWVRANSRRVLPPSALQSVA

[9] = biological target: T3, panel of more than 300 wild-type and mutant kinases (313 kinase panel) (Homo sapiens, UniProt Q8NE63)
T3 sequence (Q8NE63 1-616): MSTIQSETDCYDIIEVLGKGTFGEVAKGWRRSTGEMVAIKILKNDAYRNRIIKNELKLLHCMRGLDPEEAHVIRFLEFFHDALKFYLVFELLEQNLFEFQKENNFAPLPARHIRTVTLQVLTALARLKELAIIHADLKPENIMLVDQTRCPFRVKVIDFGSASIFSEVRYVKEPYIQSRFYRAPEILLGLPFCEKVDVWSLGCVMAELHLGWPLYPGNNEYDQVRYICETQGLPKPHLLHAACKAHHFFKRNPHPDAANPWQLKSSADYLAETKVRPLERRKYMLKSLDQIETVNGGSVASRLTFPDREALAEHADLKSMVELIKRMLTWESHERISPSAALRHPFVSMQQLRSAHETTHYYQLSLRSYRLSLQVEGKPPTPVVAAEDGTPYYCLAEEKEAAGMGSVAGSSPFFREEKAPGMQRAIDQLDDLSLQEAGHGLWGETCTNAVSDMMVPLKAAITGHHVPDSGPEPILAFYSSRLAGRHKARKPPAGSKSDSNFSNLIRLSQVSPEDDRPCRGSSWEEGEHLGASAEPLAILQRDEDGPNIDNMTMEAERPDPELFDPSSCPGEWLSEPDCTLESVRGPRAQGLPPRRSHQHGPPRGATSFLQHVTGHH

[10] = kinase MAP2K6, compound at 1 μM

Sequence of panel of more than 300 wild-type and mutant kinases (313 kinase panel) (Homo sapiens, UniProt P16234, V561D) (P16234 24-1089 V561D): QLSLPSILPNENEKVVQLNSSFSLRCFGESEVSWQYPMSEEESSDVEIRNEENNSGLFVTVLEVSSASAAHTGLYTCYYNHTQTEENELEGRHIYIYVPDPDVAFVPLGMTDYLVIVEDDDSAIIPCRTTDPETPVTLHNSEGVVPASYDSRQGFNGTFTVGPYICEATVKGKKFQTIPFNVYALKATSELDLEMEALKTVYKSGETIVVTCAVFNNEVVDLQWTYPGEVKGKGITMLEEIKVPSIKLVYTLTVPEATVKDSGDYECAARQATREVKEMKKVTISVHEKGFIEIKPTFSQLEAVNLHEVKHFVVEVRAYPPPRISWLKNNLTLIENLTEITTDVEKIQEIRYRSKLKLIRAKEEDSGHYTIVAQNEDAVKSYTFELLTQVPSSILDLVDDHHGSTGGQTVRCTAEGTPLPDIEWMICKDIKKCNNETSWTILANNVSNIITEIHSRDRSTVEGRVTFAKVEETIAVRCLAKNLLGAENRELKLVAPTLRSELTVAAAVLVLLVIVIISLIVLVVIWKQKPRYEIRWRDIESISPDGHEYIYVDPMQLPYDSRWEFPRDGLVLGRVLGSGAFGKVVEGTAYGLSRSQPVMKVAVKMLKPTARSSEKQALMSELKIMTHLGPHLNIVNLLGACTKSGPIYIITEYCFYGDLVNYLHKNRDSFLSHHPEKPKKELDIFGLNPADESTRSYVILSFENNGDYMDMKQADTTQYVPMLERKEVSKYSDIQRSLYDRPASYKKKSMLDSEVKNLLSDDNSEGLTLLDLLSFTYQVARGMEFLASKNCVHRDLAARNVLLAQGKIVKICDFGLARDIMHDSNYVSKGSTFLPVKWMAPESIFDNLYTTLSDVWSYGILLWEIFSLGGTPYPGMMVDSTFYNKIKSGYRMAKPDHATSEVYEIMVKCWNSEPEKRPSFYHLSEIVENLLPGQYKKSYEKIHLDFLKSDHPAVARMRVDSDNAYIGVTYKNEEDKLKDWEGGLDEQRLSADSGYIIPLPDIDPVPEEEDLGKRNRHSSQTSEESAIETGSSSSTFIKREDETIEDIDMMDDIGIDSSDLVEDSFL

| SMILES | %-inhibition of PDGFRα(V561D) ([1]; kinase PDGFRα(V561D), 1 μM) [%] | %-inhibition of TEC ([2]; kinase TEC, 1 μM) [%] | %-inhibition of SIK ([3]; kinase SIK, 1 μM) [%] | %-inhibition, BTK ([4]; kinase BTK, 1 μM compound) [%] | %-inhibition of WNK3 ([5]; kinase WNK3, compound at 1 μM) [%] | %-inhibition, ARG ([6]; kinase ARG, 1 μM compound) [%] | %-inhibition of MAP2K6 [7, 10] [%] | %-inhibition, AurB ([8]; kinase AurB, 1 μM compound) [%] | %-inhibition of HIPK4 ([9]; kinase HIPK4, compound at 1 μM) [%] | %-inhibition of PDGFRα(V561D) ([1]; 1 µM) [%] | %-inhibition of TEC ([2]; 1 µM) [%] | %-inhibition of MAP2K6 ([7]; 1 µM) [%] | %-inhibition of SIK ([3]; 1 µM) [%] | %-inhibition of HIPK4 ([9]; 1 µM) [%] | %-inhibition, AurB ([8]; 1 µM) [%] | %-inhibition of WNK3 ([5]; 1 µM) [%] | %-inhibition, ARG ([6]; 1 µM) [%] | %-inhibition, BTK ([4]; 1 µM) [%] |
| --- | --- | --- | --- | --- | --- | --- | --- | --- | --- | --- | --- | --- | --- | --- | --- | --- | --- | --- |
| COc1cc(Nc2c(C#N)cnc3cc(OCCCN4CCN(C)CC4)c(OC)cc23)c(Cl)cc1Cl [bosutinib] | 64 | 58 | 100 | 97 | 13 |  |  |  |  |  |  |  |  |  |  |  |  |  |
| COc1cc2nccc(Oc3ccc(NC(=O)C4(C(=O)Nc5ccc(F)cc5)CC4)cc3)c2cc1OC [cabozantinib] | 99 | 43 | 6 | 93 | 20 | 29 | 83 | 89 |  |  |  |  |  |  |  |  |  |  |
| C[C@@H](Oc1cc(-c2cnn(C3CCNCC3)c2)cnc1N)c1c(Cl)ccc(F)c1Cl [crizotinib] | 30 | 1.53 | 26 |  | -8 | 80 | 19 |  | 31 |  |  |  |  |  |  |  |  |  |
| CC(C)(C)c1nc(-c2cccc(NS(=O)(=O)c3c(F)cccc3F)c2F)c(-c2ccnc(N)n2)s1 [dabrafenib] | 51 | 38 | 100 | 60 | 1.34 | 54 | 1.34 | 39 | 92 |  |  |  |  |  |  |  |  |  |
| Cc1nc(Nc2ncc(C(=O)Nc3c(C)cccc3Cl)s2)cc(N2CCN(CCO)CC2)n1 [dasatinib] |  |  |  |  |  |  | 47 |  |  |  |  |  |  |  |  |  |  |  |
| C#Cc1cccc(Nc2ncnc3cc(OCCOC)c(OCCOC)cc23)c1 [erlotinib] |  |  |  |  |  |  |  |  |  | 56 | 20 | 6 | 8 | 37 | 25 | 0.315 |  |  |
| CO[C@H]1C[C@@H]2CC[C@@H](C)[C@@](O)(O2)C(=O)C(=O)N2CCCC[C@H]2C(=O)O[C@H]([C@H](C)C[C@@H]2CC[C@@H](OCCO)[C@H](OC)C2)CC(=O)[C@H](C)/C=C(\C)[C@@H](O)[C@@H](OC)C(=O)[C@H](C)C[C@H](C)/C=C/C=C/C=C/1C [everolimus] | -6 | -4 | -5.51 | 1.16 | -12 | 1.07 | 13 | -1.39 | -6.34 |  |  |  |  |  |  |  |  |  |
| O=S(=O)(c1cccc2cnccc12)N1CCCNCC1 [fasudil] | 9 | -7 | -0.948 | 1.51 | 0.446 | -7 | 2.2 | 1 | -0.779 |  |  |  |  |  |  |  |  |  |
| CS(=O)(=O)CCNCc1ccc(-c2ccc3ncnc(Nc4ccc(OCc5cccc(F)c5)c(Cl)c4)c3c2)o1 [lapatinib] |  | 0 | -7 |  |  | 11 |  |  | 9 | -1 |  | 9 |  |  | 9 |  |  |  |
| Cc1cn(-c2cc(NC(=O)c3ccc(C)c(Nc4nccc(-c5cccnc5)n4)c3)cc(C(F)(F)F)c2)cn1 [nilotinib] |  | -0.144 | -25 | 45 | -7 |  | 84 | -11 | 37 | 100 |  |  |  |  |  |  | 95 |  |
| Cc1ccc(Nc2nccc(N(C)c3ccc4c(C)n(C)nc4c3)n2)cc1S(N)(=O)=O [pazopanib] |  | 48 | 19 | 13 | 8 | 67 | 78 | 45 | 22 |  |  |  |  |  |  |  |  |  |
| Cc1ccc(C(=O)Nc2ccc(CN3CCN(C)CC3)c(C(F)(F)F)c2)cc1C#Cc1cnc2cccnn12 [ponatinib] | 103 | 79 | 96 | 95 | 0.73 | 100 |  | 46 | 96 |  |  |  |  |  |  |  |  |  |
| CNC(=O)c1cc(Oc2ccc(NC(=O)Nc3ccc(Cl)c(C(F)(F)F)c3)c(F)c2)ccn1 [regorafenib] | 101 | -8 | 0.674 | 2.55 | -10 | 35 | 93 | 20 | 100 |  |  |  |  |  |  |  |  |  |
| N#CC[C@H](C1CCCC1)n1cc(-c2ncnc3[nH]ccc23)cn1 [ruxolitinib] | 18 | 18 | 22 |  | -8 | 6 | 44 | 24 |  |  |  |  |  | 3 |  |  |  | -6 |
| COc1cc2c(Nc3ccc(Br)cc3F)ncnc2cc1OCC1CCN(C)CC1 [vandetanib] | 100 | 15 | 70 |  | -7 | 94 | 18 | 23 | 20 |  |  |  |  |  |  |  |  |  |

From publication PMC3961306, “Comparison of the Cancer Gene Targeting and Biochemical Selectivities of All Targeted Kinase Inhibitors Approved for Clinical Use” (PLoS ONE, 2014)
